# From patent publication US11230556B2 (Merck Sharp & Dohme Corp., priority 2016, dated 2022)
# Target: T1, human M4 muscarinic acetylcholine receptor (Homo sapiens, UniProt P08173)
# T1 construct: expressed in transfected cells; host or cells: CHO-K1
# T1 sequence (P08173 1-479): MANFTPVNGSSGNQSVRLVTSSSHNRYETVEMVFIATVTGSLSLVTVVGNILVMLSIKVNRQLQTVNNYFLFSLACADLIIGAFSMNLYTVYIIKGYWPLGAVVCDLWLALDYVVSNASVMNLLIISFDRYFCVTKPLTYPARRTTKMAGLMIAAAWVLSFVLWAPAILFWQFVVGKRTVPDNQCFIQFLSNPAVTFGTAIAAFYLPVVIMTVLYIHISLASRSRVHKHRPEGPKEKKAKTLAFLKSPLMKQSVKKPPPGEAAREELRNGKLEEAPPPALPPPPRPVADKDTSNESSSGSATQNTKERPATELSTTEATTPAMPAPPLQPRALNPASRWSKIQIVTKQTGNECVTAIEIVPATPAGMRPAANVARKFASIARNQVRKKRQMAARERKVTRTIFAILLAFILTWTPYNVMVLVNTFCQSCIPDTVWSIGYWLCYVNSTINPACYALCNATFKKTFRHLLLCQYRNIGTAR
# Experiment: human FLIPR-based M4 PAM assay (CHO-K1 cells with human M4 receptor and Gαqi5, calcium dye fluorescence, acetylcholine at 20% of maximum response)
# Assay type: cell-based
# Conditions: inflection point (IP) of 4 parameter logistic dose response curve, human M4 receptor + Gαqi5, FLIPR Tetra
# Experimental: In a typical experiment the M4 muscarinic acetylcholine receptor modulating activity of the compounds of the present invention was determined in accordance with the following experimental method. CHO-K1 cells stably transfected with human M4 receptor and chimeric G-protein Gαqi5 (Coward P, et al., Analytical Biochemistry, 270:242-248 (1999)) are thawed from liquid N2 storage, resuspended in growth medium, plated in black, clear bottom 384 well plates, and incubated 16-20 hours at 37° C., 5% CO2. On the day of assay, growth medium is removed, the cells are washed 2 times with wash buffer, and cells are incubated in dye loading buffer at 37° C., 5% CO2 for ˜1 hour. Following dye loading the cell plates are placed in a FLIPR Tetra instrument and while monitoring dye fluorescence (excitation […]), 10 uL of test substance at increasing concentrations is added, and fluorescence values are recorded for 4 min. Next, 10 uL of acetylcholine is added (final concentration calculated so as to achieve 20% of the maximum acetycholine response), and the fluorescence reading is continued for 3.5 min. In some cases, a third addition of acetylcholine (final concentration calculated to achieve 70% of the maximal acetylcholine response) is performed. The resulting dose response curves are fit to a 4 parameter logistic equation and the final result is determined as the inflection point (IP) of the curve
# CHO-K1 cells stably transfected with human M4 receptor and chimeric G-protein Gαqi5 are thawed from liquid N2 storage, resuspended in growth medium, plated in black, clear bottom 384 well plates, and incubated 16-20 hours at 37° C., 5% CO2.
# On the day of assay, growth medium is removed, the cells are washed 2 times with wash buffer, and cells are incubated in dye loading buffer at 37° C., 5% CO2 for ˜1 h. Following dye loading the cell plates are placed in a FLIPR Tetra instrument and while monitoring dye fluorescence ([…]), 10 uL of test substance at increasing concentrations is added, and fluorescence values are recorded for 4 min. Next, 10 uL of acetylcholine is added (final concentration calculated so as to achieve 20% of the maximum acetycholine response), and the fluorescence reading is continued for 3.5 min. In some cases, a third addition of acetylcholine (final concentration calculated to achieve 70% of the maximal acetylcholine response) is performed.
row,EC50 [µM],Molecule
1,1.38,"COc1ccc(OC2CCN(c3nc4cnn(C)c4cc3C)CC2)cn1 [Example 66, 5-(4-((6-methoxypyridin-3-yl)oxy)piperidin-1-yl)-1,6-dimethyl-1H-pyrazolo[4,3-b]pyridine]"
2,0.167,"COc1ccc(OC2CCN(c3nc4c(cc3C)CN(C(=O)C3CCO3)C4)CC2)cn1 (stereo not shown) [Example 48, (2-(4-((6-methoxypyridin-3-yl)oxy)piperidin-1-yl)-3-methyl-5,7-dihydro-6H-pyrrolo[3,4-b]pyridin-6-yl)(oxetan-2-yl)methanone]"
3,0.765,"COc1ccc(OC2CCN(c3nc4nccn4cc3C)CC2)cn1 [Example 67, 7-(4-((6-methoxypyridin-3-yl)oxy)piperidin-1-yl)-6-methylimidazo[1,2-a]pyrimidine]"
4,0.163,"Cc1cc2c(nc1N1CCC(Oc3ccc4c(c3)COC4)CC1)C1COCCN1C2=O (single isomer, unassigned) [Example 81B]"
5,0.114,"COC(=O)N1Cc2cc(C)c(N3CCC(Oc4ccccc4)CC3)nc2C1 [Example 62, methyl 3-methyl-2-(4-phenoxypiperidin-1-yl)-5,7-dihydro-6H-pyrrolo[3,4-b]pyridine-6-carboxylate]"
6,0.672,"COc1ccc(OC2CCN(c3nc4c(cc3C)CN(Cc3ccncc3)C4=O)CC2)cn1 [Example 36, 2-(4-((6-Methoxypyridin-3-yl)oxy)piperidin-1-yl)-3-methyl-6-(pyridin-4-ylmethyl)-5,6-dihydro-7H-pyrrolo[3,4-b]pyridin-7-one]"
7,0.489,"COc1ccc(OC2CCN(c3nc4c(cc3C)CN(C(=O)C3(C)CCCC3)C4)CC2)cn1 [Example 44, (2-(4-((6-methoxypyridin-3-yl)oxy)piperidin-1-yl)-3-methyl-5,7-dihydro-6H-pyrrolo[3,4-b]pyridin-6-yl)(1-methylcyclopentyl)methanone]"
8,0.069,"COc1ccc(OC2CCN(c3nc4nn(CCO)c(=O)n4cc3C)CC2)cn1 [Example 14, 2-(2-hydroxyethyl)-7-(4-((6-methoxypyridin-3-yl)oxy)piperidin-1-yl)-6-methyl-[1,2,4]triazolo[4,3-a]pyrimidin-3(2H)-one]"
9,0.338,Cc1cn2c(=O)[nH]nc2nc1N1CCC(Oc2ccc3c(cnn3C)c2)CC1 [Example 18]
10,0.306,"COc1ccc(OC2CCN(c3nc4c(cc3C)CN(C(=O)C3CCCC3)C4)CC2)cn1 [Example 46, cyclopentyl(2-(4-((6-methoxypyridin-3-yl)oxy)piperidin-1-yl)-3-methyl-5,7-dihydro-6H-pyrrolo[3,4-b]pyridin-6-yl)methanone]"
11,0.017,"Cc1cc2c(nc1N1CCC(Oc3ccccc3)CC1)COC2=O [Example 31, 3-methyl-2-(4-phenoxypiperidin-1-yl)furo[3,4-b]pyridin-5(7H)-one]"
12,0.168,"Cc1cn2c(=O)[nH]nc2nc1N1CCC(Oc2ccc3c(c2)C(=O)N(C2CC2)C3)CC1 [Example 6, 7-(4-((2-cyclopropyl-3-oxoisoindolin-5-yl)oxy)piperidin-l-yl)-6-methyl-[1,2,4]triazolo[4,3-a]pyrimidin-3(2H)-one]"
13,0.138,"Cc1cn2c(=O)[nH]nc2nc1N1CC[C@@H](Oc2ccc3c(cnn3C)c2)[C@H](F)C1 [Example 7, 7-((3R,4R)-3-fluoro-4-((1-methyl-1H-indazol-5-yl)oxy)piperidin-1-yl)-6-methyl-[1,2,4]triazolo[4,3-a]pyrimidin-3(2H)-one]"
14,0.025,"(R)-2-(4-((1,3-dihydroisobenzofuran-5-yl)oxy)piperidin-1-yl)-3-methyl-8,9,10,10a-tetrahydropyrido[2′,3′:3,4]pyrrolo[1,2-a]pyrazin-5(7H)-one and (S)-2-(4-((1,3-dihydroisobenzofuran-5-yl)oxy)piperidin-1-yl)-3-methyl-8,9,10,10a-tetrahydropyrido[2′,3′:3,4]pyrrolo[1,2-a]pyrazin-5(7H)-one [Example 83B]"
15,0.221,"Cc1cc2c(nc1N1CCC(Oc3cccc(C#N)c3)CC1)CNS2(=O)=O [Example 76, 3-((1-(6-methyl-1,1-dioxido-2,3-dihydroisothiazolo[4,5-b]pyridin-5-yl)piperidin-4-yl)oxy)benzonitrile]"
16,0.168,"COc1ccc(OC2CCN(c3nc4c(cc3C)CN(S(=O)(=O)C3CC3)C4)CC2)cn1 [Example 58, 6-(Cyclopropylsulfonyl)-2-(4-((6-methoxypyridin-3-yl)oxy)piperidin-1-yl)-3-methyl-6,7-dihydro-5H-pyrrolo[3,4-b]pyridine]"
17,0.349,"COc1ccc(OC2CCN(c3nc4c(cc3C)CNC4)CC2)cn1 [Example 34, 2-(4-((6-Methoxypyridin-3-yl)oxy)piperidin-1-yl)-3-methyl-6,7-dihydro-5H-pyrrolo[3,4-b]pyridine]"
18,0.126,"COc1ccc(OC2CCN(c3nc4c(cc3C)CN(C(=O)C3CC(F)(F)C3)C4)CC2)cn1 [Example 49, (3,3-difluorocyclobutyl)(2-(4-((6-methoxypyridin-3-yl)oxy)piperidin-1-yl)-3-methyl-5,7-dihydro-6H-pyrrolo[3,4-b]pyridin-6-yl)methanone]"
19,0.054,"COc1ccc(OC2CCN(c3nc4c(cc3C)C(=O)OC4C)CC2)cn1 (racemic) [Example 29B, (R)-2-(4-((6-Methoxypyridin-3-yl)oxy)piperidin-1-yl)-3,7-dimethylfuro[3,4-b]pyridin-5(7H)-one and (S)-2-(4-((6-methoxypyridin-3-yl)oxy)piperidin-1-yl)-3,7-dimethylfuro[3,4-b]pyridin-5(7H)-one]"
20,0.2,"COc1ccc(OC2CCN(c3nc4c(cc3C)CN(C(=O)C3(C)COC3)C4)CC2)cn1 [Example 42, (2-(4-((6-methoxypyridin-3-yl)oxy)piperidin-1-yl)-3-methyl-5,7-dihydro-6H-pyrrolo[3,4-b]pyridin-6-yl)(3-methyloxetan-3-yl)methanone]"
21,0.242,"COc1ccc(OC2CCN(c3nc4cn(C)nc4cc3C)CC2)cn1 [Example 64, 5-(4-((6-Methoxypyridin-3-yl)ox)piperidin-1-yl)-2,6-dimethyl-2H-pyrazolo[4,3-b]pyridine]"
22,0.079,"Cc1cn2c(=O)n(C)nc2nc1N1CCC(OCC2(C)CC2)CC1 [Example 3, 2,6-Dimethyl-7-(4-((1-methylcyclopropyl)methoxy)piperidin-1-yl)-[1,2,4]triazolo[4,3-a]pyrimidin-3(2H)-one]"
23,0.165,"COc1ccc(OC2CCN(c3nc4c(cc3C)S(=O)(=O)NC4)CC2)cn1 [Example 75, 5-(4-((6-Methoxypyridin-3-yl)oxy)piperidin-1-yl)-6-methyl-2,3-dihydroisothiazolo[4,5-b]pyridine 1,1-dioxide]"
24,0.267,"(R)-2-(4-((6-Methoxypyridin-3-yl)oxy)piperidin-1-yl)-3,7-dimethylfuro[3,4-b]pyridin-5(7H)-one and (S)-2-(4-((6-methoxypyridin-3-yl)oxy)piperidin-1-yl)-3,7-dimethylfuro[3,4-b]pyridin-5(7H)-one [Example 29A]"
25,0.042,"COc1ccc(OC2CCN(c3nc4c(cc3C)C(=O)CC4)CC2)cn1 [Example 69, 2-(4-((6-Methoxypyridin-3-yl)oxy)piperidin-1-yl)-3-methyl-6,7-dihydro-5H-cyclopenta[b]pyridin-5-one]"
26,1.17,"COc1ccc(OC2CCN(c3nc4[nH]c(=O)[nH]c4cc3C)CC2)cn1 [Example 79, 5-(4-((6-Methoxypyridin-3-yl)oxy)piperidin-1-yl)-6-methyl-1,3-dihydro-2H-imidazo[4,5-b]pyridin-2-one]"
27,0.071,"Cc1cc2c(=O)[nH]n(C)c2nc1N1CCC(Oc2ccc3cn[nH]c3c2)CC1 [Example 27, 6-(4-((1H-indazol-6-yl)oxy)piperidin-1-yl)-1,5-dimethyl-1,2-dihydro-3H-pyrazolo[3,4-b]pyridin-3-one]"
28,0.068,"COc1ccc(OC2CCN(c3nc4[nH][nH]c(=O)c4cc3C)CC2)cn1 [Example 23, 6-(4-((6-methoxypyridin-3-yl)oxy)piperidin-1-yl)-5-methyl-1,2-dihydro-3H-pyrazolo[3,4-b]pyridin-3-one]"
